The text below walks through data of PubChem BioAssay AID2060890 (Molecular Pharmacology Branch, DTP, NCI, 2025).

As a reminder, the IC50 is the midpoint of a concentration-inhibition curve. Broadly, the viability, T/C is the result in the treated group divided by that in the control group, in per cent.

The test system of the assay is LG0703-F948-PDC complex spheroid viability. Kind of assay: Anticancer human tumor LG0703-F948-PDC patient-derived lung adenocarcinoma cell line growth inhibition [RAS]. As to conditions: for viability, T/C: stronger effect = lower value. The text has this:
RAS pathway inhibitors in Combinations in Complex Spheroids
A high-throughput screen of multi-cell type tumor spheroids was designed to identify active combinations of RAS pathway inhibitors and targeted small molecules. Complex spheroids include a stromal component modeled by human endothelial cells (HUVEC) and fibroblasts modeled by human mesenchymal stem cells (MSCs). The concentration ranges selected for each drug and investigational agent were based upon clinically achievable concentrations if the clinical Cmax of the agent was known.
Compounds. The drugs and investigational agents: abemaciclib (NSC768073), cobimetinib (NSC768068), divarasib (GDC6063, NSC841802), docetaxel (NSC628503), GDC-1971 (RLY-1971, NSC841576), gemcitabine (NSC613327), inavolisib (NSC800729), ipatasertib (NSC767898), KB-0742 (NSC834161), MRTX-1133 (NSC836407), osimertinib (NSC779217), RMC-4630 (NSC839698), RMC-6236 (NSC851965), RMC-6291 (NSC852671), Ro-3306 (NSC812927), sapanisertib (NSC764658), SN-38 (NSC673596), staurosporine (NSC755774), SY5609 (NSC837396), and tovorafenib (DAY101, NSC766906), were obtained from the National Cancer Institute (NCI) Developmental Therapeutics Program Chemical Repository. The FDA-approved anticancer drug set is available from the NCI Developmental Therapeutics Program. […] The stock solutions were prepared in dimethyl sulfoxide (DMSO, Sigma-Aldrich, St. Louis, MO, cat. D2650) at 800-fold the tested concentration and stored at -70 degrees C prior to their use. All drugs and investigational agents were tested over a range starting from a high concentration at or near the clinical Cmax and decreasing in half-log increments. If the clinical Cmax for an agent had not been determined, the highest concentration tested was 10 microM.
Cell Culture. All cells were maintained in an incubator at 37 degrees C and 5% CO2 with 95% humidity. The PDC lines were cultured according to standard operating procedures established by the NCI PDMR. All PDCs were thawed and cultured in Matrigel-coated flasks prepared with a working solution of 1X Ham's F-12 nutrient mix, without supplementation (Invitrogen, Waltham, MA, cat. 11765054), 100 U/mL penicillin-streptomycin (Invitrogen, cat. 15140122), and 2.5% Matrigel (Corning Inc., Corning, NY, cat. 354248) for the first three passages. The 362531-283-R-J2-PDC and 782815-120-R-J1-PDC lines were cultured in 6C/Colon 1B media, which includes advanced DMEM/F-12 (Thermo Fisher Scientific, cat. 12634028), 10 mM HEPES (Thermo Fisher Scientific, cat. 15630080), 1X GlutaMAX supplement (Thermo Fisher Scientific, cat. 35050061), 0.1 mg/mL primocin (InvivoGen, San Diego, CA, cat. ant-pm-2), 10% defined fetal bovine serum, heat inactivated (HyClone Laboratories Inc., Logan, UT, cat. SH30070.03HI), 50% L-WRN conditioned media (ATCC, cat. CRL-3276), 1.25 mM N-Acetyl-L-cysteine (Sigma-Aldrich, cat. A9165), 10 mM nicotinamide (Sigma-Aldrich, cat. N0636), 1X B-27 supplement (Thermo Fisher Scientific, cat. 17504044), 1X N-2 supplement (Thermo Fisher Scientific, cat. 17502048), 50 ng/mL human EGF (Thermo Fisher Scientific, cat. PHG0311), and 10 microM Y-27632 dihydrochloride (Tocris Bioscience, cat. 1254). The K12877-001-R-J1-PDC line was cultured in 6I media, which includes all 6C/Colon 1B media plus 10 ng/mL human FGF-10 (PeproTech, cat. 100-26), 1 ng/mL human FGF-2 (PeproTech, cat. 100-18B), 1 µM prostaglandin E2 (Tocris Bioscience, cat. 2296), […] hydrocortisone (Sigma-Aldrich, cat. H4001), and […] bovine insulin (Sigma-Aldrich, cat. I6634). The K86415-001-R-J1-PDC line was cultured in 6D media, which includes all 6C/Colon 1B media components minus the L-WRN conditioned media. The 485176-168-R4-J1-PDC was cultured in PANC media, which includes all 6C/Colon 1B media plus 100 ng/mL human FGF-10 (PeproTech, cat. 100-26), 500 nM SB-431542 (Selleckchem, cat. S1067), and 10 nM gastrin (Tocris Bioscience, cat. 3006). […]
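Further: spheroids exposed to agents for 7 days.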
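Wherever viability, T/C is given: 100% = DMSO vehicle wells.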

On to `O=C(c1ccc(F)c(F)c1Nc1ccc(I)cc1F)N1CC(O)([C@@H]2CCCCN2)C1` + C=CC(=O)N1CCN(c2nc(OCC3CCCN3C)nc3c(F)c(-c4nc(N)cc(C)c4C(F)(F)F)c(Cl)cc23)C(C)C1, for which the IC50 was determined as 27.1 nM (curve of first compound, second compound 0.00316 µM); 34 nM (curve of first compound, second compound 0.01 µM); 35.6 nM (curve of first compound, second compound 0.0316 µM); 31.7 nM (curve of first compound, second compound 0.1 µM); 36.3 nM (curve of first compound, second compound 0.316 µM); 46 nM (curve of first compound, second compound 1 µM). For the same molecule, the viability, T/C (second compound 0.00316 µM, first compound 0.00316 µM) is 92.1%; the viability, T/C (second compound 0.00316 µM, first compound 0.01 µM) was 69.6%; the viability, T/C (second compound 0.00316 µM, first compound 0.0316 µM) is 47.3%; the viability, T/C (second compound 0.00316 µM, first compound 0.1 µM) is 30.2%; the viability, T/C (second compound 0.00316 µM, first compound 0.316 µM) is 19.5%; the viability, T/C (second compound 0.00316 µM, first compound 1 µM) was 16.7%. Moreover, the viability, T/C (second compound 0.01 µM, first compound 0.00316 µM) was 92.6%; the viability, T/C (second compound 0.01 µM, first compound 0.01 µM) was 79.5%; the viability, T/C (second compound 0.01 µM, first compound 0.0316 µM) is 51.3%; the viability, T/C (second compound 0.01 µM, first compound 0.1 µM) is 26.8%; the viability, T/C (second compound 0.01 µM, first compound 0.316 µM) was 16.8%; the viability, T/C (second compound 0.01 µM, first compound 1 µM) was 13.2%. The viability, T/C is 94.2% (second compound 0.0316 µM, first compound 0.00316 µM); 81.2% (second compound 0.0316 µM, first compound 0.01 µM); 52.3% (second compound 0.0316 µM, first compound 0.0316 µM); 27.7% (second compound 0.0316 µM, first compound 0.1 µM); 17.6% (second compound 0.0316 µM, first compound 0.316 µM); 14.2% (second compound 0.0316 µM, first compound 1 µM). For the same molecule, the viability, T/C (second compound 0.1 µM, first compound 0.00316 µM) was 89.7%; the viability, T/C (second compound 0.1 µM, first compound 0.01 µM) is 74.1%; the viability, T/C (second compound 0.1 µM, first compound 0.0316 µM) was 50.6%; the viability, T/C (second compound 0.1 µM, first compound 0.1 µM) is 27.9%; the viability, T/C (second compound 0.1 µM, first compound 0.316 µM) was 18.9%; the viability, T/C (second compound 0.1 µM, first compound 1 µM) is 13.8%. In addition, the viability, T/C is, setting by setting: (second compound 0.316 µM, first compound 0.00316 µM) 90.8%; (second compound 0.316 µM, first compound 0.01 µM) 82.5%; (second compound 0.316 µM, first compound 0.0316 µM) 52.8%; (second compound 0.316 µM, first compound 0.1 µM) 27%; (second compound 0.316 µM, first compound 0.316 µM) 19.7%; (second compound 0.316 µM, first compound 1 µM) 17.5%. Besides, the viability, T/C (second compound 1 µM, first compound 0.00316 µM) was 99.8%; the viability, T/C (second compound 1 µM, first compound 0.01 µM) is 92.7%; the viability, T/C (second compound 1 µM, first compound 0.0316 µM) is 58.4%; the viability, T/C (second compound 1 µM, first compound 0.1 µM) is 30.9%; the viability, T/C (second compound 1 µM, first compound 0.316 µM) is 23.6%; the viability, T/C (second compound 1 µM, first compound 1 µM) was 18%.
With `CC(C)n1nc(-c2ccc3oc(N)nc3c2)c2c(N)ncnc21`, the viability, T/C is, setting by setting: (compound 0.000316 µM) 104% [middle of 4 runs]; (compound 0.00316 µM) 65.1% [middle of 4 runs]; (compound 0.01 µM) 40.8% [middle of 4 runs]; (compound 0.0316 µM) 23.2% [middle of 4 runs]; (compound 0.1 µM) 17% [middle of 4 runs]. Also, the IC50 (curve of compound) was 6.31 nM [middle of 4 runs].
`CCn1c(-c2cc(N3CCN(C)CC3)cnc2C(C)OC)c2c3cc(ccc31)-c1csc(n1)CC(NC(=O)C1CC1C)C(=O)N1CCCC(N1)C(=O)OCC(C)(C)C2` (centres undefined): the viability, T/C (compound 0.003 µM) was 46.6% [middle of 8 runs]; the viability, T/C (compound 0.00949 µM) was 25.5% [middle of 8 runs]; the viability, T/C (compound 0.03 µM) was 14% [middle of 8 runs]; the viability, T/C (compound 0.0949 µM) is 11.6% [middle of 8 runs]; the viability, T/C (compound 0.3 µM) is 12.3% [middle of 8 runs]. The IC50 (compound alone, run of 08/26/2024) is 2.7 nM [middle of 8 runs].
